# Data from patent US12427134B2, “Methods of reducing the risk of cardiovascular events in a subject with atrial fibrillation and/or atrial flutter” (priority 2019, dated 2025).
# Tested on: hypertriglyceridemic patients with cardiovascular disease or at high risk for cardiovascular disease
# Assay: REDUCE-IT: treatment-emergent adverse events and serious adverse events (safety population)
# Conditions: Safety population, N = 4089
# Protocol: Specification of Variables and Procedures: Safety assessments included adverse events, clinical laboratory measurements (chemistry, hematology), 12-lead ECGs, vital signs (systolic and diastolic blood pressure, heart rate, respiratory rate, and body temperature), weight, waist circumference, and physical examinations as per Study Procedures in Table 1. […] All laboratory test results were evaluated by the investigator as to their clinical significance. Any observations at physical examinations or laboratory values considered by the investigator to be clinically significant were considered an adverse event.
# An adverse event can therefore be any unfavorable and/or unintended sign (including an abnormal laboratory finding), symptom, or disease temporally associated with the use of an investigational medication product, whether or not related to the investigational medication product. All adverse events, including observed or volunteered problems, complaints, or symptoms, were recorded on the appropriate CRF. Each adverse event was evaluated for duration, intensity, and causal relationship with the study medication or other factors.
# Adverse events, which included clinical laboratory test variables, were monitored from the time of informed consent until study participation was complete. Patients were instructed to report any adverse event that they experienced to the investigator. Beginning with Visit 2, investigators assessed for adverse events at each visit and recorded the event on the appropriate adverse event CRF.
# Causality Assessment: The relationship of an adverse event to the administration of the study drug was assessed according to the following definitions: • No (unrelated, not related, no relation)—The time course between the administration of study drug and the occurrence or worsening of the adverse event rules out a causal relationship and another cause (concomitant drugs, therapies, complications, etc.) is suspected. • Yes (related, probably related, possibly related)—The time course between the administration of study drug and the occurrence or worsening of the adverse event is consistent with a causal relationship and no other cause (concomitant drugs, therapies, complications, etc.) can be identified.
# Serious Adverse Events: A serious adverse event (SAE) is defined as an adverse event that meets any of the following criteria: • Results in death; • Is life-threatening—The term “life-threatening” in the definition of “serious” refers to an event in which the patient was at risk of death at the time of the event. […] Important medical events that may not result in death, be life threatening, or require hospitalization were considered an SAE when, based upon appropriate medical judgment, they may have jeopardized the patient and may have required medical or surgical intervention to prevent one of the outcomes listed above.
# Analysis of Safety: All analyses of safety were conducted on the safety population, which was defined as all randomized patients. The safety assessment was based on the frequency of adverse events, physical exams, vital signs and safety laboratory tests. AEs with new onset during the study between the initiation of study drug and 30 days after the last dose of study drug for each patient was considered treatment-emergent (TEAEs). This included any AE with onset prior to initiation of study drug and increased severity after the treatment initiation.
# This included overall incidence rates (regardless of severity and relationship to study drug), and incidence rates for moderate or severe adverse events. A summary of SAEs and adverse events leading to early discontinuation (for ≥30 days) were presented through data listings. Patients who restarted study drug were included in the summary of AEs leading to discontinuation.
smiles,measurement,value
"CC/C=C\C/C=C\C/C=C\C/C=C\C/C=C\CCCC(=O)OCC [AMR101, eicosapentaenoic acid ethyl ester]","Serious adverse event - Anemia, n patients",22
same,"Serious adverse event - Angina pectoris, % patients",(1.2) %
same,"Serious adverse event - Angina pectoris, n patients",48
same,"Serious adverse event - Angina unstable, % patients",(1.0) %
same,"Serious adverse event - Angina unstable, n patients",41
same,"Serious adverse event - Atrial fibrillation, % patients",(0.5) %
same,"Serious adverse event - Atrial fibrillation, n patients",21
same,"Serious adverse event - Blood and lymphatic system disorders (SOC), % patients",(1.0) %
same,"Serious adverse event - Blood and lymphatic system disorders (SOC), n patients",39
same,"Serious adverse event - Cardiac disorders (SOC), % patients",(4.7) %
same,"Serious adverse event - Cardiac disorders (SOC), n patients",192
same,"Serious adverse event - Cardiac failure congestive, % patients",(0.5) %
same,"Serious adverse event - Cardiac failure congestive, n patients",19
same,"Serious adverse event - Cellulitis, % patients",(0.9) %
same,"Serious adverse event - Cellulitis, n patients",36
same,"Serious adverse event - Chest pain, % patients",(1.6) %
same,"Serious adverse event - Chest pain, n patients",66
same,"Serious adverse event - Chronic obstructive pulmonary disease, % patients",(0.8) %
same,"Serious adverse event - Chronic obstructive pulmonary disease, n patients",33
same,"Serious adverse event - Gastrointestinal disorders (SOC), % patients",(4.7) %
same,"Serious adverse event - Gastrointestinal disorders (SOC), n patients",191
same,"Serious adverse event - Gastrointestinal hemorrhage, % patients",(0.6) %
same,"Serious adverse event - Gastrointestinal hemorrhage, n patients",26
same,"Serious adverse event - General disorders and administration site conditions (SOC), % patients",(3.4) %
same,"Serious adverse event - General disorders and administration site conditions (SOC), n patients",139
same,"Serious adverse event - Musculoskeletal and connective tissue disorders (SOC), % patients",(4.6) %
same,"Serious adverse event - Musculoskeletal and connective tissue disorders (SOC), n patients",188
same,"Serious adverse event - Neoplasms benign, malignant, and unspecified (incl cysts and polyps) (SOC), % patients",(5.4) %
same,"Serious adverse event - Neoplasms benign, malignant, and unspecified (incl cysts and polyps) (SOC), n patients",222
same,"Serious adverse event - Nervous system disorders (SOC), % patients",(2.5) %
same,"Serious adverse event - Nervous system disorders (SOC), n patients",104
same,"Serious adverse event - Non-cardiac chest pain, % patients",(1.2) %
same,"Serious adverse event - Non-cardiac chest pain, n patients",49
same,"Serious adverse event - Osteoarthritis, % patients",(2.0) %
same,"Serious adverse event - Osteoarthritis, n patients",81
same,"Serious adverse event - Pneumonia, % patients",(2.6) %
same,"Serious adverse event - Pneumonia, n patients",105
same,"Serious adverse event - Prostate cancer, % patients",(0.6) %
same,"Serious adverse event - Prostate cancer, n patients",26
same,"Serious adverse event - Pulmonary embolism, % patients",(0.3) %
same,"Serious adverse event - Pulmonary embolism, n patients",14
same,"Serious adverse event - Renal and urinary disorders (SOC), % patients",(2.9) %
same,"Serious adverse event - Renal and urinary disorders (SOC), n patients",120
same,"Serious adverse event - Respiratory, thoracic, and mediastinal disorders (SOC), % patients",(3.5) %
same,"Serious adverse event - Respiratory, thoracic, and mediastinal disorders (SOC), n patients",143
same,"Serious adverse event - Syncope, % patients",(0.7) %
same,"Serious adverse event - Syncope, n patients",28
same,"Severe TEAE, %",(19.7) %
same,"Severe TEAE: Acute kidney injury, %",(0.7) %
same,"Severe TEAE: Acute respiratory failure, %",(0.5) %
same,"Severe TEAE: Angina pectoris, %",(0.2) %
same,"Severe TEAE: Angina unstable, %",(0.3) %
same,"Severe TEAE: Back pain, %",(0.5) %
same,"Severe TEAE: Cardiac disorders, %",(2.4) %
same,"Severe TEAE: Chest pain, %",(0.7) %
same,"Severe TEAE: Chronic obstructive pulmonary disease, %",(0.4) %
same,"Severe TEAE: General disorders and administration site conditions, %",(1.9) %
same,"Severe TEAE: Musculoskeletal and connective tissue disorders, %",(2.9) %
same,"Severe TEAE: Nervous system disorders, %",(1.9) %
same,"Severe TEAE: Osteoarthritis, %",(0.8) %
same,"Severe TEAE: Pneumonia, %",(1.5) %
same,"Severe TEAE: Renal and urinary disorders, %",(1.9) %
same,"Severe TEAE: Respiratory, thoracic, and mediastinal disorders, %",(2.5) %
same,"Severe TEAE: Syncope, %",(0.3) %
same,"Study Drug-Related Serious TEAE Leading to Withdrawal of Study Drug, %",(0.0) %
same,"Study Drug-Related Serious TEAE, %",(0.2) %
same,"Study Drug-Related TEAE Leading to Withdrawal of Study Drug, %",(3.4) %
same,"Study Drug-Related TEAE, %",(12.6) %
same,"Study drug-related TEAE leading to study drug withdrawal - Abdominal discomfort, % patients",(0.1) %
same,"Study drug-related TEAE leading to study drug withdrawal - Abdominal discomfort, n patients",6
same,"Study drug-related TEAE leading to study drug withdrawal - Abdominal distension, % patients",(0.1) %
same,"Study drug-related TEAE leading to study drug withdrawal - Abdominal distension, n patients",3
same,"Study drug-related TEAE leading to study drug withdrawal - Abdominal pain upper, % patients",(0.1) %
same,"Study drug-related TEAE leading to study drug withdrawal - Abdominal pain upper, n patients",4
same,"Study drug-related TEAE leading to study drug withdrawal - Abdominal pain, % patients",(0.0) %
same,"Study drug-related TEAE leading to study drug withdrawal - Abdominal pain, n patients",1
same,"Study drug-related TEAE leading to study drug withdrawal - Abnormal feces, % patients",(0.0) %
same,"Study drug-related TEAE leading to study drug withdrawal - Abnormal feces, n patients",0
same,"Study drug-related TEAE leading to study drug withdrawal - Arthralgia, % patients",(0.2) %
same,"Study drug-related TEAE leading to study drug withdrawal - Arthralgia, n patients",7
same,"Study drug-related TEAE leading to study drug withdrawal - Arthritis, % patients",(0.1) %
same,"Study drug-related TEAE leading to study drug withdrawal - Arthritis, n patients",3
same,"Study drug-related TEAE leading to study drug withdrawal - Constipation, % patients",(0.1) %
same,"Study drug-related TEAE leading to study drug withdrawal - Constipation, n patients",4
same,"Study drug-related TEAE leading to study drug withdrawal - Diarrhea, % patients",(1.0) %
same,"Study drug-related TEAE leading to study drug withdrawal - Diarrhea, n patients",41
same,"Study drug-related TEAE leading to study drug withdrawal - Dyspepsia, % patients",(0.1) %
same,"Study drug-related TEAE leading to study drug withdrawal - Dyspepsia, n patients",4
same,"Study drug-related TEAE leading to study drug withdrawal - Eructation, % patients",(0.1) %
same,"Study drug-related TEAE leading to study drug withdrawal - Eructation, n patients",3
same,"Study drug-related TEAE leading to study drug withdrawal - Flatulence, % patients",(0.1) %
same,"Study drug-related TEAE leading to study drug withdrawal - Flatulence, n patients",6
same,"Study drug-related TEAE leading to study drug withdrawal - Gastric disorder, % patients",(0.1) %
same,"Study drug-related TEAE leading to study drug withdrawal - Gastric disorder, n patients",4
